Binding activity data for two molecules are collected here from patent publication US7129239B2, “Purine compounds and uses thereof” (Pfizer Inc., priority 2002, dated 2006).

Structures are written as SMILES.

In the test the test system is CB-1 receptor. The experiment in a line: CB-1 receptor binding assay ([3H]SR141716A displacement). The following applies: rat or human protocol not specified.

Procedure: The following assays were designed to detect compounds that inhibit the binding of [^3H] SR141716A (selective radiolabeled CB-1 ligand) and [^3H]
PelFreeze brains (available from Pel Freeze Biologicals, Rogers, Ark.) were cut up and placed in tissue preparation buffer (5 mM Tris HCl, pH=7.4 and 2 mM EDTA), polytroned at high speed and kept on ice for 15 minutes. The homogenate was then spun at 1,000×g for 5 minutes at 4° C. The supernatant was recovered and centrifuged at 100,000×G for 1 hour at 4° C. […] A protein assay was performed and 200 μl of tissue totaling 20 μg was added to the assay.
The test compounds were diluted in drug buffer (0.5% BSA, 10% DMSO and TME) and then 25 μl were added to a deep well polypropylene plate. [^3H] SR141716A was diluted in a ligand buffer (0.5% BSA plus TME) and 25 μl were added to the plate. A BCA protein assay was used to determine the appropriate tissue concentration and then 200 μl of rat brain tissue at the appropriate concentration was added to the plate. […] In the morning the filters were counted on a Wallac Betaplate™ counter (available from PerkinElmer Life Sciences™, Boston, Mass.). […]
The test compounds were diluted in drug buffer (0.5% BSA, 10% DMSO and TME) and then 25 μl were added to a deep well polypropylene plate. […] In the morning the filters were counted on a Wallac Betaplate™ counter (available from PerkinElmer Life Sciences™, Boston, Mass.).

In the case of `O=C([O-])C1(Nc2ncnc3c2nc(-c2ccccc2Cl)n3-c2ccc(Cl)cc2)CCCC1.[K+]` [Example 19A-1, 1-[9-(4-chlorophenyl)-8-(2-chlorophenyl)-9H-purin-6-ylamino]-cyclopentanecarboxylic Acid, Potassium Salt], the binding activity turned out to be 2.8 nM. The figure for `NC1(C(=O)[O-])CCN(c2ncnc3c2nc(-c2ccccc2Cl)n3-c2ccc(Cl)cc2)CC1.[K+]` [Example 19A-2, 4-Amino-1-[9-(4-chlorophenyl)-8-(2-chlorophenyl)-9H-purin-6-yl]-piperidine-4-carboxylic Acid, Potassium Salt] is 1.2 nM.
